Test results from the NIST ThermoML archive (doi:10.1021/je060271a).
Where “and” joins values, the source holds several entries; their conditions need not be identical. Equal entries are not always repeated. ± gives the expanded uncertainty stated by the source.

Details: 323.15 K, Liquid, Vibrating tube method

CCCCCCCC(=O)OCC(COC(=O)CCCCCCC)(COC(=O)CCCCCCC)COC(=O)CCCCCCC [pentaerythritol tetraoctanoate]
Details	mass density
3786.1 kPa	943.3 ± 1.2 kg/m3
3800.8 kPa	943.3 ± 1.2 kg/m3
3818.1 kPa	943.3 ± 1.2 kg/m3
3832.3 kPa	943.3 ± 1.2 kg/m3
3846.9 kPa	943.3 ± 1.2 kg/m3
3894.9 kPa	943.3 ± 1.2 kg/m3
4078 kPa	943.4 ± 1.2 kg/m3
4095.3 kPa	943.5 ± 1.2 kg/m3
4116.3 kPa	943.5 ± 1.2 kg/m3
4133.4 kPa	943.5 ± 1.2 kg/m3
4151.5 kPa	943.4 ± 1.2 kg/m3
4169.5 kPa	943.5 ± 1.2 kg/m3
4190.6 kPa	943.5 ± 1.2 kg/m3
4208.3 kPa	943.5 ± 1.2 kg/m3
4239.4 kPa	943.7 ± 1.2 kg/m3
4240.5 kPa	943.6 ± 1.2 kg/m3
4244.3 kPa	943.6 ± 1.2 kg/m3
4247.1 kPa	943.6 ± 1.2 kg/m3
4247.4 kPa	943.5 ± 1.2 kg/m3
4247.6 kPa	943.5 ± 1.2 kg/m3
4248.6 kPa	943.5 ± 1.2 kg/m3
4249.3 kPa	943.5 ± 1.2 kg/m3 and 943.6 ± 1.2 kg/m3
4250.7 kPa	943.7 ± 1.2 kg/m3
4258.1 kPa	943.6 ± 1.2 kg/m3
4267.5 kPa	943.7 ± 1.2 kg/m3
4277.9 kPa	943.5 ± 1.2 kg/m3
4287.4 kPa	943.5 ± 1.2 kg/m3
4298 kPa	943.6 ± 1.2 kg/m3
4315.8 kPa	943.6 ± 1.2 kg/m3
4334.7 kPa	943.5 ± 1.2 kg/m3
4353.7 kPa	943.6 ± 1.2 kg/m3
4376.6 kPa	943.5 ± 1.2 kg/m3
4396.7 kPa	943.6 ± 1.2 kg/m3
4416.4 kPa	943.8 ± 1.2 kg/m3
4436.5 kPa	943.7 ± 1.2 kg/m3
4522.7 kPa	943.7 ± 1.2 kg/m3
4548.7 kPa	943.7 ± 1.2 kg/m3
4571 kPa	943.8 ± 1.2 kg/m3
4604.4 kPa	943.8 ± 1.2 kg/m3
4618.8 kPa	943.7 ± 1.2 kg/m3
4647.7 kPa	943.8 ± 1.2 kg/m3
4665.2 kPa	943.8 ± 1.2 kg/m3
4679.7 kPa	943.8 ± 1.2 kg/m3
4709.7 kPa	943.8 ± 1.2 kg/m3
4727.3 kPa	943.9 ± 1.2 kg/m3
4891.1 kPa	943.9 ± 1.2 kg/m3
4907.3 kPa	944 ± 1.2 kg/m3
4923.3 kPa	944 ± 1.2 kg/m3
4942.8 kPa	944.1 ± 1.2 kg/m3
4959.8 kPa	943.9 ± 1.2 kg/m3
4976.6 kPa	944 ± 1.2 kg/m3
4996.1 kPa	944 ± 1.2 kg/m3
5013.6 kPa	944 ± 1.2 kg/m3
5030.7 kPa	944 ± 1.2 kg/m3
5047.7 kPa	944.1 ± 1.2 kg/m3
5068.6 kPa	944.1 ± 1.2 kg/m3
5086.9 kPa	944.1 ± 1.2 kg/m3
5104.6 kPa	944.2 ± 1.2 kg/m3
5218.8 kPa	944.1 ± 1.2 kg/m3
5237.3 kPa	944.2 ± 1.2 kg/m3
5255.9 kPa	944.1 ± 1.2 kg/m3
5277.4 kPa	944 ± 1.2 kg/m3
5296.3 kPa	944.3 ± 1.2 kg/m3
5316.3 kPa	944.2 ± 1.2 kg/m3
5355 kPa	944.3 ± 1.2 kg/m3
5378.7 kPa	944.3 ± 1.2 kg/m3
5681.4 kPa	944.5 ± 1.2 kg/m3
5729.8 kPa	944.6 ± 1.2 kg/m3
5752.1 kPa	944.5 ± 1.2 kg/m3
5847.4 kPa	944.5 ± 1.2 kg/m3
5898.9 kPa	944.7 ± 1.2 kg/m3
5922.8 kPa	944.6 ± 1.2 kg/m3
5946.5 kPa	944.7 ± 1.2 kg/m3
5970.5 kPa	944.6 ± 1.2 kg/m3
5999.4 kPa	944.7 ± 1.2 kg/m3
6024.1 kPa	944.7 ± 1.2 kg/m3
6049 kPa	944.6 ± 1.2 kg/m3
6104.5 kPa	944.9 ± 1.2 kg/m3
6129.2 kPa	944.8 ± 1.2 kg/m3
6154.4 kPa	944.8 ± 1.2 kg/m3
6185.7 kPa	944.9 ± 1.2 kg/m3
6211.6 kPa	944.7 ± 1.2 kg/m3
6413.9 kPa	945 ± 1.2 kg/m3
6442.7 kPa	945.1 ± 1.2 kg/m3
6473 kPa	945 ± 1.2 kg/m3
6509.3 kPa	944.9 ± 1.2 kg/m3
6534.3 kPa	945 ± 1.2 kg/m3
6561.1 kPa	945 ± 1.2 kg/m3
6584.4 kPa	945 ± 1.2 kg/m3
6606.7 kPa	945 ± 1.2 kg/m3
6623 kPa	945.2 ± 1.2 kg/m3
6640.9 kPa	945.1 ± 1.2 kg/m3
6655.8 kPa	945.2 ± 1.2 kg/m3
6670.8 kPa	945.1 ± 1.2 kg/m3
6686 kPa	945.1 ± 1.2 kg/m3
6704.2 kPa	945 ± 1.2 kg/m3
6719.4 kPa	945.2 ± 1.2 kg/m3
6735.1 kPa	945.2 ± 1.2 kg/m3
6749.8 kPa	945.1 ± 1.2 kg/m3
6768.8 kPa	945.2 ± 1.2 kg/m3
6784.3 kPa	945.2 ± 1.2 kg/m3
6800.4 kPa	945.2 ± 1.2 kg/m3
6817 kPa	945.2 ± 1.2 kg/m3
6835.8 kPa	945.3 ± 1.2 kg/m3
6851.9 kPa	945.3 ± 1.2 kg/m3
6867.4 kPa	945.1 ± 1.2 kg/m3
6883.1 kPa	945.3 ± 1.2 kg/m3
6902.5 kPa	945.3 ± 1.2 kg/m3
6918.5 kPa	945.3 ± 1.2 kg/m3
6935.1 kPa	945.2 ± 1.2 kg/m3
6954.5 kPa	945.3 ± 1.2 kg/m3
6971.2 kPa	945.4 ± 1.2 kg/m3
6987.8 kPa	945.3 ± 1.2 kg/m3
7004.7 kPa	945.4 ± 1.2 kg/m3
7025.5 kPa	945.3 ± 1.2 kg/m3
7043.2 kPa	945.5 ± 1.2 kg/m3
7059.8 kPa	945.4 ± 1.2 kg/m3
7076.5 kPa	945.4 ± 1.2 kg/m3
7096.9 kPa	945.4 ± 1.2 kg/m3
7113.8 kPa	945.4 ± 1.2 kg/m3
7131.3 kPa	945.5 ± 1.2 kg/m3
7148.4 kPa	945.5 ± 1.2 kg/m3
7169.6 kPa	945.5 ± 1.2 kg/m3
7187.1 kPa	945.5 ± 1.2 kg/m3
7204 kPa	945.6 ± 1.2 kg/m3
7225.1 kPa	945.5 ± 1.2 kg/m3
7243.2 kPa	945.4 ± 1.2 kg/m3
7262.9 kPa	945.5 ± 1.2 kg/m3
7281.3 kPa	945.5 ± 1.2 kg/m3
7299.6 kPa	945.5 ± 1.2 kg/m3
7320.9 kPa	945.6 ± 1.2 kg/m3
7338.5 kPa	945.7 ± 1.2 kg/m3
7357.3 kPa	945.6 ± 1.2 kg/m3
7379.6 kPa	945.5 ± 1.2 kg/m3
7397.7 kPa	945.7 ± 1.2 kg/m3
7416.4 kPa	945.6 ± 1.2 kg/m3
7435.3 kPa	945.6 ± 1.2 kg/m3
7457.8 kPa	945.7 ± 1.2 kg/m3
7476.9 kPa	945.7 ± 1.2 kg/m3
7496.1 kPa	945.6 ± 1.2 kg/m3
7515.6 kPa	945.7 ± 1.2 kg/m3
7538.6 kPa	945.7 ± 1.2 kg/m3
7558.1 kPa	945.7 ± 1.2 kg/m3
7577.6 kPa	945.6 ± 1.2 kg/m3
7601.3 kPa	945.7 ± 1.2 kg/m3
7621.1 kPa	945.8 ± 1.2 kg/m3
7640.6 kPa	945.7 ± 1.2 kg/m3
7660.5 kPa	945.8 ± 1.2 kg/m3
